“And” between values parts separate entries of the source, which are not always exact repeats. Identical values can stand only once. Toxic doses and inconclusive results are not listed. Cut-off read from the data, not from the text of the source: active = T/C of 150% or more; inactive = T/C below 125%.
System: L1210 leukemia ip in BDF1 mice, survival T/C
Assay: NCI In Vivo Anticancer Drug Screen. Data for tumor model L1210 Leukemia (intraperitoneal) in B6D2F1 (BDF1) mice
Details: endpoint: mean survival time, higher = longer survival
Method in brief: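 Tumor was transplanted into mice, which were then dosed with test compound or vehicle alone. Survival was recorded for each group, and the treated figure was expressed relative to the control figure.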

[1] = dose: 100.0 mg/kg/injection, schedule: Q04DX003 (ip), vehicle: saline
[2] = dose: 200.0 mg/kg/injection, schedule: Q04DX003 (ip), vehicle: saline
[3] = dose: 200.0 mg/kg/injection, schedule: Q04DX003 (ip), vehicle: saline with Tween-80
[4] = dose: 400.0 mg/kg/injection, schedule: Q04DX003 (ip), vehicle: saline with Tween-80
[5] = dose: 100.0 mg/kg/injection, schedule: Q04DX003 (ip), vehicle: saline with Tween-80
[6] = dose: 100.0 mg/kg/injection, schedule: Q01DX001 (ip), vehicle: saline
[7] = dose: 200.0 mg/kg/injection, schedule: Q01DX001 (ip), vehicle: saline
[8] = dose: 400.0 mg/kg/injection, schedule: Q01DX001 (ip), vehicle: saline
[9] = dose: 5.0 mg/kg/injection, schedule: Q01DX001 (ip), vehicle: saline
[10] = dose: 10.0 mg/kg/injection, schedule: Q01DX001 (ip), vehicle: saline
[11] = dose: 20.0 mg/kg/injection, schedule: Q01DX001 (ip), vehicle: saline
[12] = dose: 40.0 mg/kg/injection, schedule: Q01DX001 (ip), vehicle: saline
[13] = dose: 25.0 mg/kg/injection, schedule: Q01DX009 (ip), vehicle: saline
[14] = dose: 50.0 mg/kg/injection, schedule: Q01DX009 (ip), vehicle: saline
[15] = dose: 100.0 mg/kg/injection, schedule: Q01DX009 (ip), vehicle: saline
[16] = dose: 100.0 mg/kg/injection, schedule: Q04DX003 (ip), vehicle: Klucel (hydroxypropylcellulose) (HPC)
[17] = dose: 200.0 mg/kg/injection, schedule: Q04DX003 (ip), vehicle: Klucel (hydroxypropylcellulose) (HPC)
[18] = dose: 400.0 mg/kg/injection, schedule: Q04DX003 (ip), vehicle: Klucel (hydroxypropylcellulose) (HPC)
[19] = dose: 100.0 mg/kg/injection, schedule: Q01DX009 (ip), vehicle: saline with Tween-80

Measured: T/C

O=C1CC2(CCN(Cc3ccccc3)CC2)C(=O)N1Nc1ccccc1
inactive: dose: 100.0 mg/kg/injection, schedule: Q01DX001 (ip), vehicle: Klucel (hydroxypropylcellulose) (HPC) 105 % of control | dose: 200.0 mg/kg/injection, schedule: Q01DX001 (ip), vehicle: Klucel (hydroxypropylcellulose) (HPC) 100 % of control | dose: 400.0 mg/kg/injection, schedule: Q01DX001 (ip), vehicle: Klucel (hydroxypropylcellulose) (HPC) 100 % of control

OCCCCCc1ccccc1
inactive: dose: 100.0 mg/kg/injection, schedule: Q01DX009 (ip), vehicle: other 105 % of control | [1] 92 % of control | dose: 200.0 mg/kg/injection, schedule: Q01DX009 (ip), vehicle: other 102 % of control | [2] 101 % of control | dose: 400.0 mg/kg/injection, schedule: Q01DX009 (ip), vehicle: other 102 % of control | dose: 400.0 mg/kg/injection, schedule: Q04DX003 (ip), vehicle: saline 90 % of control

O=C(NC1CCCCC1)c1ccc2ccccc2c1O
inactive: [3] 98 % of control | [4] 95 % of control

COc1ncnc2c(C3OC(CO)C(O)C3O)[nH]nc12 (stereo not drawn)
inactive: dose: 100.0 mg/kg/injection, schedule: Q01DX005 (ip), vehicle: saline 103 % of control | dose: 200.0 mg/kg/injection, schedule: Q01DX005 (ip), vehicle: saline 97 % of control

NC(=S)N=Nc1c(O)n2c3c(cccc13)CCc1ccccc1-2
inactive: [5] 92 % of control | [3] 96 % of control | [4] 94 % of control

c1ccc2c(c1)ccc1c3ccncc3ccc21
inactive: [6] 101 % of control | [7] 98 % of control | [8] 98 % of control

O=[N+]([O-])c1ccc([S][Pb]([c]2ccccc2)([c]2ccccc2)[c]2ccccc2)cc1
inactive: dose: 100.0 mg/kg/injection, schedule: Q04DX002 (ip), vehicle: Klucel (hydroxypropylcellulose) (HPC) 111 % of control | dose: 200.0 mg/kg/injection, schedule: Q04DX002 (ip), vehicle: Klucel (hydroxypropylcellulose) (HPC) 93 % of control

Nc1ccc(P(=O)(O)O)cc1
inactive: dose: 50.0 mg/kg/injection, schedule: Q01DX001 (ip), vehicle: carboxymethylcellulose (CMC) 101 % of control | dose: 100.0 mg/kg/injection, schedule: Q01DX001 (ip), vehicle: carboxymethylcellulose (CMC) 97 % of control | dose: 200.0 mg/kg/injection, schedule: Q01DX001 (ip), vehicle: carboxymethylcellulose (CMC) 91 % of control | dose: 400.0 mg/kg/injection, schedule: Q01DX001 (ip), vehicle: carboxymethylcellulose (CMC) 91 % of control

CCCCCCCCCCSC#N
inactive: [9] 103 % of control | [10] 97 % of control | [11] 105 % of control | dose: 20.0 mg/kg/injection, schedule: Q01DX009 (ip), vehicle: saline 111 % of control | dose: 20.0 mg/kg/injection, schedule: Q04DX003 (ip), vehicle: saline 100 % of control | [12] 97 % of control | dose: 40.0 mg/kg/injection, schedule: Q01DX009 (ip), vehicle: saline 106 % of control | dose: 40.0 mg/kg/injection, schedule: Q04DX003 (ip), vehicle: saline 100 % of control | dose: 80.0 mg/kg/injection, schedule: Q01DX009 (ip), vehicle: saline 100 % of control | dose: 80.0 mg/kg/injection, schedule: Q04DX003 (ip), vehicle: saline 101 % of control

COC(=O)/C=C\C(=O)O
inactive: [1] 88 % of control | [2] 88 % of control

O=C(O)C(Oc1ccc(Cl)cc1Cl)C(=O)O
inactive: dose: 100.0 mg/kg/injection, schedule: Q04DX002 (ip), vehicle: other 93 % of control | dose: 200.0 mg/kg/injection, schedule: Q04DX002 (ip), vehicle: other 97 % of control | dose: 400.0 mg/kg/injection, schedule: Q04DX002 (ip), vehicle: other 95 % of control

C[N+](C)(C)Cc1ccco1
inactive: [13] 103 % of control | [14] 93 % of control | [15] 95 % of control and 90 % of control

c1ccc2nc(C3CO3)cnc2c1 (stereo not drawn)
inactive: [5] 100 % of control | [3] 91 % of control | [4] 99 % of control

O=C(Nc1ccccc1F)OCCOc1ccc(Br)cc1
inactive: dose: 100.0 mg/kg/injection, schedule: Q01DX009 (ip), vehicle: Klucel (hydroxypropylcellulose) (HPC) 103 % of control | dose: 200.0 mg/kg/injection, schedule: Q01DX009 (ip), vehicle: Klucel (hydroxypropylcellulose) (HPC) 97 % of control | dose: 400.0 mg/kg/injection, schedule: Q01DX009 (ip), vehicle: Klucel (hydroxypropylcellulose) (HPC) 123 % of control

CN(C)CCN1C(=O)CC(c2ccccc2)Sc2ccccc21 (stereo not drawn)
inactive: dose: 3.12 mg/kg/injection, schedule: Q01DX009 (ip), vehicle: saline 98 % of control | dose: 6.25 mg/kg/injection, schedule: Q01DX009 (ip), vehicle: saline 118 % of control | dose: 12.5 mg/kg/injection, schedule: Q01DX009 (ip), vehicle: saline 101 % of control | [13] 107 % of control | dose: 25.0 mg/kg/injection, schedule: Q04DX003 (ip), vehicle: saline 102 % of control | [14] 113 % of control | dose: 50.0 mg/kg/injection, schedule: Q04DX003 (ip), vehicle: saline 113 % of control

CCCCCCCCCCCCCCCCN(C(C)C)S(=O)(=O)c1ccc(Cl)c(N)c1
inactive: [15] 89 % of control | [16] 98 % of control | dose: 200.0 mg/kg/injection, schedule: Q01DX009 (ip), vehicle: saline 89 % of control | [17] 96 % of control | dose: 400.0 mg/kg/injection, schedule: Q01DX009 (ip), vehicle: saline 102 % of control | [18] 89 % of control

COc1c(C)c(C)c(OC(C)=O)c(C)c1COC(C)=O
inactive: dose: 25.0 mg/kg/injection, schedule: Q01DX009 (ip), vehicle: saline with Tween-80 90 % of control | dose: 50.0 mg/kg/injection, schedule: Q01DX009 (ip), vehicle: saline with Tween-80 95 % of control | dose: 100.0 mg/kg/injection, schedule: Q01DX001 (ip), vehicle: saline with Tween-80 98 % of control | [19] 95 % of control and 98 % of control | dose: 200.0 mg/kg/injection, schedule: Q01DX001 (ip), vehicle: saline with Tween-80 93 % of control | dose: 400.0 mg/kg/injection, schedule: Q01DX001 (ip), vehicle: saline with Tween-80 109 % of control

C=C(C)C1CCC2(C(=O)O)CCC3(C)C(CCC4C5(C)CCC(O)C(C)(C)C5CCC43C)C12 (stereo not drawn)
inactive: [16] 104 % of control | [17] 97 % of control | [18] 96 % of control

Cc1cc(Cl)n[nH]c1=O
inactive: [6] 105 % of control | [7] 104 % of control | [8] 102 % of control

C[N+](C)=Cc1c[nH]c2ccccc12
inactive: dose: 9.38 mg/kg/injection, schedule: Q01DX001 (ip), vehicle: steriod suspending solution 98 % of control | dose: 18.75 mg/kg/injection, schedule: Q01DX001 (ip), vehicle: steriod suspending solution 94 % of control | dose: 37.5 mg/kg/injection, schedule: Q01DX001 (ip), vehicle: steriod suspending solution 98 % of control

O=C(Oc1c(Cl)cc(S(=O)(=O)F)cc1Cl)c1ccc([N+](=O)[O-])cc1
inactive: dose: 100.0 mg/kg/injection, schedule: Q04DX002 (ip), vehicle: gum acacia 101 % of control | dose: 200.0 mg/kg/injection, schedule: Q04DX002 (ip), vehicle: gum acacia 99 % of control | dose: 400.0 mg/kg/injection, schedule: Q04DX002 (ip), vehicle: gum acacia 99 % of control

Cc1ccc([N+](=O)[O-])cc1NC(=O)COc1ccc(Cl)cc1
inactive: [19] 91 % of control | dose: 200.0 mg/kg/injection, schedule: Q01DX009 (ip), vehicle: saline with Tween-80 89 % of control | dose: 400.0 mg/kg/injection, schedule: Q01DX009 (ip), vehicle: saline with Tween-80 89 % of control

Nc1ncc2c(n1)SCC2
inactive: [9] 104 % of control | [10] 104 % of control | [11] 102 % of control | [12] 102 % of control | dose: 80.0 mg/kg/injection, schedule: Q01DX001 (ip), vehicle: saline 116 % of control
